From patent US9464077B2, “Nitrogen-containing aromatic heterocyclic compound” (Astellas Pharma Inc., priority 2012, dated 2016)

System: FGFR3_S249C/NIH3T3 cells
Assay: Growth assay of cells with forced expression of mutant FGFR3
Assay type: cell-based
Conditions: Mus musculus, NIH3T3, 120 h; 5 days after addition, CellTiter-Glo; read-out: IC50 (growth inhibition)
Method: FGFR3_S249C/NIH3T3 cells were added to a 96-well spheroid plate (U bottom) at a concentration of 3000 cells/well/90 μL, and the compound solution (10 μL) was added thereto on the next day (final DMSO concentration: 0.1%). The compound solution was prepared by serially diluting the compound with DMSO at a 3-fold common ratio (9 portions and DMSO only) from the maximum concentration of 10 mM and then diluted 100-fold with a culture medium (D-MEM, 10% FBS). 5 days after the addition of the compound, the growth inhibition caused by the compound was evaluated by Promega (G7573) CellTiter-Glo™ Luminescent Cell Viability Assay.

COc1cc(OC)c(F)c(COc2cnc(Nc3ccc(N4CCC(NCCO)CC4)cc3)nc2)c1F [Example 299]
IC50: 10 nM
